# Test results reported in patent publication US8288377B2, “Inhibitors of the interaction between MDM2 and p53” (Janssen Pharmaceutica N.V., priority 2007, dated 2012).
# Key:
# [1] = tested on: A2780 ovarian cancer cells; assay: Proliferation assay (Alamar Blue); format: cell-based; details: Homo sapiens, 96 h, 4-day incubation, read-out: pIC50 (negative log value of the IC50-value) (converted)
# Method: Cellular activity of the compounds of formula (I) was determined on A2780 tumour cells using a colorimetric assay for cell toxicity or survival (see example C.2).
# The human A2780 ovarian cancer cells were a kind gift from Dr. T. C. Hamilton (Fox Chase Cancer Centre, Pennsylvania, U.S.A.). The cells were cultured in RPMI 1640 medium supplemented with 2 mM L-Glutamine, 50 μg/ml gentamicin and 10% fetal calf serum.
# Resazurin was purchased from Aldrich (Prod. No. 199303). Potassium ferrocyanide, potassium ferricyanide, KH2PO4 and K2HPO4 were purchased from Sigma (Prod. Nos. P9387, P8131, P5655 and P8281, respectively).
# Potassium Phosphate Buffer 0.1 M (PPB) was made as follows: 2.72 gram KH2PO4 and 13.86 gram K2HPO4 were dissolved in 500 ml milli-Q H2O, the pH was adjusted to pH 7.4 and the volume was brought to 1 liter with milli-Q H2O; the buffer was filter sterilised and stored at room temperature. Resazurin stock solution (PPB-A) was prepared fresh by dissolving 45 mg resazurin in 15 ml PBS. 30 mM potassium ferricyanide (PPB-B) was prepared by dissolving 0.987 gram potassium ferricyanide in 100 ml PPB. 30 mM potassium ferrocyanide (PPB-C) was prepared by dissolving 1.266 gram potassium ferrocyanide in 100 ml PPB.
# Mixture of PPB-A, PPB-B and PPB-C was prepared by mixing equal volumes of the respective solutions. Resazurin work solution (herein termed “Alamar Blue” solution) was prepared by diluting said mixture 20× (vol/vol) in PPB and filter sterilising; the Alamar Blue solution could be kept at 4° C. for a maximum of 2 weeks.
# For experiments in 384 wells plates the cells were seeded at a density of 5×10^3 cells/ml in Falcon 384-well culture plates (Life Technologies, Merelbeke, Belgium), black with clear bottom, in 45 μl culture medium. Cells were allowed to adhere to plastic for 24 hr. The tested compound was pre-diluted (1/50 in culture medium) and 5 μl pre-diluted compound was added to the wells. Following 4-day incubation, 10 μl of the Alamar Blue solution was added to each well and the cells were further incubated for 5 hrs (A2780) at 37° C. The fluorescence intensity was measured for each well with a Fluorescence plate reader (Fluorskan, Labsystems, 540 nm excitation and 590 nm emission)
# The antiproliferative activity was calculated as percentage of remaining viable cells in treated versus control (untreated cells) conditions. Within an experiment, the result for each experimental condition is the mean of 3 replicate wells. When appropriate, the experiments were repeated to establish full concentration-response curves. When appropriate, IC50-values (concentration of the drug, needed to reduce cell growth to 50% of the control) were computed using probit analysis for graded data (Finney, D. J., Probit Analyses, 2nd Ed. Chapter 10, Graded Responses, Cambridge University Press, Cambridge 1962). Herein the effects of test compounds are expressed as pIC50 (the negative log value of the IC50-value) (see Table 4).
# p53 in A2780 cells = assay: p53 ELISA (preservation of p53 in A2780 cells); format: cell-based; details: Homo sapiens, treated with compound for 16 hours, read-out: p53-elisa LAD (lowest dose giving at least 140% of the value for p53 present in the control)
# Method: The capacity of the compounds to preserve p53 in A2780 cells was measured with the p53 enzyme linked immunosorbent assay (ELISA). The p53 assay is a “sandwich” enzyme immunoassay employing two polyclonal antibodies. A polyclonal antibody, specific for the p53 protein, has been immobilized onto the surface of the plastic wells. Any p53 present in the sample to be assayed will bind to the capture antibody. The biotinylated detector polyclonal antibody also recognizes p53 protein, and will bind to any p53, which has been retained by the capture antibody. The detector antibody, in turn, is bound by horseradish peroxidase-conjugated streptavidin. The horseradish peroxidase catalyses the conversion of the chromogenic substrate o-phenylene diamine, the intensity of which is proportional to the amount of p53 protein bound to the plate. The coloured reaction product is quantified using a spectrophotometer. Quantitation is achieved by the construction of a standard curve using known concentrations of purified recombinant HIS tagged p53 protein (see example C.1).
# A2780 cells (ATCC) were cultivated in RPMI 1640 supplemented with 10% fetal calf serum (FCS), 2 mM L-glutamine and gentamycin at 37° C. in a humidified incubator with 5% CO2.
# A2780 cells were seeded at 20.000 cells per well in a 96 well plate, cultured for 24 hours and treated with compound for 16 hours at 37° C. in a humidified incubator. After incubation, the cells were washed once with phosphate-buffered saline and 30 μl, per well, low salt RIPA buffer (20 mM tris, pH7.0, 0.5 mM EDTA, 1% Nonidet P40, 0.5% DOC, 0.05% SDS, 1 mM PMSF, 1 μg/ml aprotinin and 0.5 μ/ml leupeptin) was added. Plates were placed on ice for 30 minutes to complete the lysis. p53 protein was detected in de lysates by using the sandwich ELISA, described below.
# High binding polystyrene EIA/RIA 96 well plates (Costar 9018) were coated with the capture antibody pAb1801 (Abcam ab28-100) at a concentration of 1 μg/ml in coating buffer (0.1 M NaHCO3 pH8.2), 50 μl per well. The antibody was allowed to adhere overnight at 4° C. Coated plates were washed once with phosphate-buffered saline (PBS)/0.05% Tween 20 and 300 μl of blocking buffer (PBS, 1% bovine serum albumins (BSA)) was added, for an incubation period of 2 hours at room temperature. Dilutions of purified recombinant HIS tagged p53 protein, ranging from 3-200 ng/ml, were made in blocking buffer and used as standards.
# Plates were washed twice with PBS/0.05% Tween 20 and blocking buffer or standards were added at 80 μl/well. To the standards, 20 μl of lysis buffer was added. The samples were added to the other wells at 20 μl lysate/well. After an overnight incubation at 4° C., plates were washed twice with PBS/0.05% Tween 20. Aliquots of 100 μl secondary polyclonal antibody p53(FL-393) (Tebubio, sc-6243) at a concentration of 1 μg/ml in blocking buffer were added to each well and allowed to adhere for 2 hours at room temperature. Plates were washed three times with PBS/0.05% Tween 20. Detection antibody anti-rabbit HRP (sc-2004, Tebubio) at 0.04 μg/ml in PBS/1% BSA was added and incubated for 1 hour at room temperature. Plates were washed three times with PBS/0.05% Tween 20 and 100 μl of substrate buffer was added (substrate buffer was prepared shortly before use by adding 1 tablet of 10 mg o-phenylene diamine (OPD) from Sigma and 125 μl 3% H2O2 to 25 ml OPD buffer: 35 mM citric acid, 66 mM Na2HPO4, pH5.6). After 5 to 10 minutes, colour reaction was stopped by adding 50 μl stop buffer (1 M H2SO4) per well. The absorbance at dual wavelengths of 490/655 nm was measured using a Biorad micro plate reader and the results were then analyzed.
# For each experiment, controls (containing no drug) and a blank incubation (containing no cells or drugs) were run in parallel. The blank value was subtracted from all control and sample values. For each sample, the value of p53 (in absorbance units) was expressed as the percentage of the value for p53 present in the control. […]
SMILES,IC50 [1] [µM],minimal effective concentration (p53 in A2780 cells) [µM]
OC1CCc2c(Nc3ccc4c(c3)OCCN4CCc3c[nH]c4ccccc34)ccnc21 (stereo not drawn) [Compound 1],0.427,0.1
CC1(C)CN(CCc2c[nH]c3ccccc23)c2ccc(Nc3ccnc4c3CCC4O)cc2O1 (stereo not drawn) [Compound 77],2.19,3
Cc1cccc2c(CCN3CC(C)(C)Oc4cc(Nc5ccnc6c5CCC6O)ccc43)c[nH]c12 (stereo not drawn) [Compound 44],5.01,> 10
O=C1N(CCc2c[nH]c3ccccc23)c2ccc(Nc3ccnc4c3CCC4O)cc2OC1(F)F (stereo not drawn) [Compound 10],–,0.3
CC1CN(CCc2c[nH]c3ccccc23)c2ccc(Nc3ccncc3)cc2O1 (stereo not drawn) [Compound 9],~5.89,> 10
OCc1cc(Nc2ccc3c(c2)OCCN3CCc2csc3ccccc23)ccn1 [Compound 67],5.01,10
OC1CCc2c(Nc3ccc4c(c3)OC3(CCSCC3)CN4CCc3c[nH]c4ccccc34)ccnc21 (stereo not drawn) [Compound 26],~6.03,0.03
O=C1COc2cc(Nc3ccnc(CO)c3)ccc2N1CCc1c[nH]c2ccccc12 [Compound 21],> 10,> 10
OC1CCc2c(Nc3ccc4c(c3)OC3(CCNCC3)CN4CCc3c[nH]c4ccccc34)ccnc21 (stereo not drawn) [Compound 31],> 10,> 10
Cc1cccc2c(CCN3CCOc4cc(Nc5ccncc5)ccc43)c[nH]c12 [Compound 48],3.47,> 10
Cc1cccc2c(CCN3CCOc4cc(Nc5ccnc(CO)c5)ccc43)c[nH]c12 [Compound 72],4.68,> 10
Cc1cccc2c(CCN3CC(C)Oc4cc(Nc5ccnc(CO)c5)ccc43)c[nH]c12 (stereo not drawn) [Compound 37],3.55,> 10
CC1Oc2cc(Nc3ccnc(CO)c3)ccc2N(CCc2c[nH]c3ccccc23)C1=O (stereo not drawn) [Compound 65],> 10,> 10
OC1CCc2c(Nc3ccc4c(c3)OC3(CCOCC3)CN4CCc3c[nH]c4ccccc34)ccnc21 (stereo not drawn) [Compound 30],6.31,> 10
OC1CCc2c(Nc3ccc4c(c3)OC(c3ccoc3)CN4CCc3c[nH]c4ccccc34)ccnc21 (stereo not drawn) [Compound 5],2.57,0.3
CN1CCN(CCc2c[nH]c3ccccc23)c2ccc(Nc3ccnc(CO)c3)cc21 [Compound 20],4.79,3
OC1CCc2c(Nc3ccc4c(c3)OCCN4CCc3csc4ccccc34)ccnc21 (stereo not drawn) [Compound 12],3.72,0.3
Cc1cccc2c(CCN3CC4(CCNCC4)Oc4cc(Nc5ccnc6c5CCC6O)ccc43)c[nH]c12 (stereo not drawn) [Compound 74],–,> 10

SMILES,IC50 [1] [µM],minimal effective concentration (p53 in A2780 cells) [µM]
CC1CN(CCc2c[nH]c3ccccc23)c2ccc(Nc3ccnc4c3CCC4O)cc2O1 (stereo not drawn) [Compound 24],5.62,3
c1ccc2c(CCN3CCCc4cc(Nc5ccncc5)ccc43)c[nH]c2c1 [Compound 23],3.02,> 10
Cc1cccc2c(CCN3CC(C)(C)Oc4cc(Nc5ccnc(CO)c5)ccc43)c[nH]c12 [Compound 38],3.72,> 10
OCc1cc(Nc2ccc3c(c2)OC2(CCNCC2)CN3CCc2c[nH]c3ccccc23)ccn1 [Compound 16],> 10,> 10
Cc1cccc2c(CCN3CC4(CCNCC4)Oc4cc(Nc5ccncc5)ccc43)c[nH]c12 [Compound 73],–,> 10
c1ccc2c(CCN3CC4(CCOCC4)Oc4cc(Nc5ccncc5)ccc43)c[nH]c2c1 [Compound 7],8.51,> 10
Cc1cccc2c(CCN3CC(O)COc4cc(Nc5ccnc6c5CCC6O)ccc43)c[nH]c12 (stereo not drawn) [Compound 18],–,> 10
CC1Oc2cc(Nc3ccnc4c3CCC4O)ccc2N(CCc2c[nH]c3ccccc23)C1=O (stereo not drawn) [Compound 80],3.09,–
O=C1N(CCc2c[nH]c3ccccc23)c2ccc(Nc3ccnc(CO)c3)cc2OC1(F)F [Compound 64],–,10
CN1CCC2(CC1)CN(CCc1c[nH]c3ccccc13)c1ccc(Nc3ccncc3)cc1O2 [Compound 51],3.02,> 10
Cc1cccc2c(CCN3CC(CO)Oc4cc(Nc5ccncc5)ccc43)c[nH]c12 (stereo not drawn) [Compound 17],–,> 10
Cc1cccc2c(CCN3C[C@@H](CO)Oc4cc(Nc5ccnc6c5CC[C@@H]6O)ccc43)c[nH]c12 [Compound 19],–,> 10
CC1CN(CCc2c[nH]c3ccccc23)c2c(F)cc(Nc3ccnc4c3CCC4O)cc2O1 (stereo not drawn) [Compound 32],–,3
CC1CN(CCc2c[nH]c3ccccc23)c2ccc(Nc3ccnc(CO)c3)cc2O1 (stereo not drawn) [Compound 79],–,10
CC1CN(CCc2c[nH]c3ccccc23)c2c(F)cc(Nc3ccncc3)cc2O1 (stereo not drawn) [Compound 57],–,> 10
O=C1N(CCc2c[nH]c3ccccc23)c2ccc(Nc3ccncc3)cc2OC1(F)F [Compound 60],–,> 10
Cc1cccc2c(CCN3CC4(CCN(C)CC4)Oc4cc(Nc5ccncc5)ccc43)c[nH]c12 [Compound 58],–,> 10
